# Patent US20040024024A1, “Aromatic sulfone hydroxamates and their use as protease inhibitors” (priority 2001, published 2004)
# Assays:
# Assay in all cases: In vitro MMP inhibition, IC50 determination (fluorogenic substrate I)
# Type in all cases: biochemical
# Human recombinant MMP-14 = target: T1, Human recombinant MMP-14 (Homo sapiens, UniProt P50281)
# T1 construct: The catalytic domain enzyme was expressed in E. coli inclusion bodies, solubilized in urea; made in house
# In short: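 IC50 came from reduced fluorescence (ex 328 nm, em 415 nm) as inhibitor concentration rose, with 4 μM substrate I cleaved at Gly-Leu. Room-temperature incubation in pH 7.5 Tris buffer with 10 mM CaCl2; the E. coli-expressed, refolded MMP-14 catalytic domain was activated with trypsin or APMA.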
# Human recombinant MMP-1 = target: T2, Human recombinant MMP-1 (Homo sapiens, UniProt P03956)
# T2 construct: made in house; host or cells: MMP-1-transfected HT-1080 cells (spent media)
# T2 sequence (P03956 100-469): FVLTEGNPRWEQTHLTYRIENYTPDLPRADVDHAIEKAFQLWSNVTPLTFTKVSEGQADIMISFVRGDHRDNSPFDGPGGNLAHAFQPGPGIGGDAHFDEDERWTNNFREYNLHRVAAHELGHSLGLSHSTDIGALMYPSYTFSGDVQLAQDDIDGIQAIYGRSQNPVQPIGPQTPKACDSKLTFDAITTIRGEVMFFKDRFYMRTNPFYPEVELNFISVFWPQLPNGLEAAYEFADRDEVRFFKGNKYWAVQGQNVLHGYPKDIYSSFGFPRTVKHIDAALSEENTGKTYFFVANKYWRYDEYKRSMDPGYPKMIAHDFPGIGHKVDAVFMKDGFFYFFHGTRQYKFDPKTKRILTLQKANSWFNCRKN
# In short: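 Inhibitor dilutions were made in 100 mM Tris-HCl/100 mM NaCl/10 mM CaCl2 buffer, pH 7.5, and incubated at room temperature with activated proenzyme (from transfected HT-1080 media; APMA or trypsin) and 4 μM quenched methoxycoumarin peptide substrate. Loss of 415 nm fluorescence (328 nm excitation) against concentration gave IC50.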
# Human recombinant MMP-13 = target: T3, Human recombinant MMP-13 (Homo sapiens, UniProt P45452)
# T3 construct: made in house; host or cells: baculovirus / insect cells
# In short: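 Fluorescence at 415 nm (excitation 328 nm) reports Gly-Leu cleavage of 4 μM quenched methoxycoumarin peptide substrate I. Human recombinant MMP-13, activated by trypsin or APMA, was incubated at room temperature with varied inhibitor concentrations in pH 7.5 Tris/NaCl/CaCl2 buffer; IC50 derived from reduced fluorescence.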
# Human recombinant MMP-9 = target: T4, Human recombinant MMP-9 (Homo sapiens, UniProt P14780)
# T4 construct: made in house; host or cells: MMP-9-transfected HT1080 cells (spent media)
# T4 sequence (P14780 107-707 limits assumed): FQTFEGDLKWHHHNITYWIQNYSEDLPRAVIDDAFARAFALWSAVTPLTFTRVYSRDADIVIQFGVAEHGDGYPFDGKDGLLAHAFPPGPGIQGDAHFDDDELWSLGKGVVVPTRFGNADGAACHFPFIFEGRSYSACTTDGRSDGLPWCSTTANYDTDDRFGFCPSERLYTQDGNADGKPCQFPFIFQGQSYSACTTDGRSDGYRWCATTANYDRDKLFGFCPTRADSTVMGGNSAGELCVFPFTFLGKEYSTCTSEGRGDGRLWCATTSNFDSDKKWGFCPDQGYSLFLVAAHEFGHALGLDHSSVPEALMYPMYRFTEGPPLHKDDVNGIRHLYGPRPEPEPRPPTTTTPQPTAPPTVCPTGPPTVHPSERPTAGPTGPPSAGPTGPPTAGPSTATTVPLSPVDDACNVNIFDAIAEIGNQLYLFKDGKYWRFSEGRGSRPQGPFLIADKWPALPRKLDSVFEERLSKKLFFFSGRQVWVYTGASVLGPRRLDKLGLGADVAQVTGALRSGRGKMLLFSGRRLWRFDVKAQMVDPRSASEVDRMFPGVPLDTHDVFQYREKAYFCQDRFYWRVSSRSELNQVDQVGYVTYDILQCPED
# In short: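 Reduction in fluorescence (328 nm excitation, 415 nm emission) from cleavage of 4 μM quenched peptide substrate I, measured at room temperature against inhibitor concentration, gave IC50. Enzyme: trypsin- or APMA-activated MMP-9 purified from transfected HT1080 medium; buffer 100 mM Tris, 100 mM NaCl, 10 mM CaCl2, pH 7.5.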
# Human recombinant MMP-2 = target: T5, Human recombinant MMP-2 (Homo sapiens, UniProt P08253)
# T5 construct: made in house; host or cells: MMP-2-transfected p2AHT2 cells
# T5 sequence (P08253 110-660): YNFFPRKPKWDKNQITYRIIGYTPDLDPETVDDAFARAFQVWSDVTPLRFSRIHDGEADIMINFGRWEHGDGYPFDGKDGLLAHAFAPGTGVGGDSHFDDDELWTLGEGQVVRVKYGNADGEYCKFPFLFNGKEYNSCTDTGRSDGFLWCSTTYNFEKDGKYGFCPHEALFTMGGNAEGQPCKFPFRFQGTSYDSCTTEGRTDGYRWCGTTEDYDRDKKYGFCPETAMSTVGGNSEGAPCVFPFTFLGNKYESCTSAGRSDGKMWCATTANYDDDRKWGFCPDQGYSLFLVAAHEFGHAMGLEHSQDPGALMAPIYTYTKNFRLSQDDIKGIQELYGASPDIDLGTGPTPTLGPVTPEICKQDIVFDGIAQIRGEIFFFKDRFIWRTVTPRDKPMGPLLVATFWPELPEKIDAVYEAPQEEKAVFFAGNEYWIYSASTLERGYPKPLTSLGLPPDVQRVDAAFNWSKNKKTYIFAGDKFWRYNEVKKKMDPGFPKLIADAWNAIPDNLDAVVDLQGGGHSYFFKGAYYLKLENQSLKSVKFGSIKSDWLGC
# In short: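 IC50 was derived from the concentration-dependent fall in fluorescence (ex 328, em 415 nm) on Gly-Leu cleavage of 4 μM MCA/Dpa-quenched substrate I. Assays ran at room temperature in pH 7.5 Tris/NaCl/CaCl2/Brij buffer with MMP-2 activated by trypsin or APMA; inhibitors were diluted from 1% DMSO stocks.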
# [1] = value outside parentheses (Ki in parenthesis)
SMILES,IC50 (Human recombinant MMP-14; [1]) [nM],IC50 (Human recombinant MMP-1; [1]) [nM],IC50 (Human recombinant MMP-13; [1]) [nM],IC50 (Human recombinant MMP-9; [1]) [nM],IC50 (Human recombinant MMP-2; [1]) [nM],other results
O=C(CCCOc1ccc(S(=O)(=O)C2(C(=O)NO)CCOCC2)cc1)Cc1ccc(Cl)cc1 [Example 302],94.9,2730,0.1,2.9,0.2,–
CCN1CCC(C(=O)NO)(S(=O)(=O)c2ccc(OCCCc3cccc(-c4ccc(F)cc4)c3)cc2)CC1 [Example 138],–,–,–,–,–,IC50 (Human recombinant MMP-14; value outside parenthesis): > 10000 nM; IC50 (Human recombinant MMP-1; value outside parenthesis): > 10000 nM; IC50 (Human recombinant MMP-13; value outside parenthesis): 2.1 nM; IC50 (Human recombinant MMP-9; value outside parenthesis): 1900 nM; IC50 (Human recombinant MMP-2; value outside parenthesis): 247 nM
O=C(NO)C1(S(=O)(=O)c2ccc(OCCCc3cccc(-c4ccccc4)c3)cc2)CCOCC1 [Example 269],–,–,–,–,–,IC50 (Human recombinant MMP-14; value outside parenthesis): > 10000 nM; IC50 (Human recombinant MMP-1; value outside parenthesis): > 10000 nM; IC50 (Human recombinant MMP-13; value outside parenthesis): 1.8 nM; IC50 (Human recombinant MMP-9; value outside parenthesis): 2750 nM; IC50 (Human recombinant MMP-2; value outside parenthesis): 898 nM
CC(CCOc1ccc(S(=O)(=O)C2(C(=O)NO)CCOCC2)cc1)C(=O)c1cccs1 (stereo not shown) [Example 276],–,–,–,–,–,IC50 (Human recombinant MMP-14; value outside parenthesis): 7020 nM; IC50 (Human recombinant MMP-1; value outside parenthesis): 6670 nM; IC50 (Human recombinant MMP-13; value outside parenthesis): 2.8 nM; IC50 (Human recombinant MMP-9; value outside parenthesis): 196 nM; IC50 (Human recombinant MMP-2; value outside parenthesis): 17.4 nM
O=C(CCOc1ccc(S(=O)(=O)C2(C(=O)NO)CCOCC2)cc1)c1ccccc1 [Example 495],–,–,–,–,–,IC50 (Human recombinant MMP-14; value outside parentheses): 505 nM; IC50 (Human recombinant MMP-1; value outside parentheses): 815 nM; IC50 (Human recombinant MMP-13; value outside parentheses): 1.7 nM; IC50 (Human recombinant MMP-9; value outside parentheses): 25.8 nM; IC50 (Human recombinant MMP-2; value outside parentheses): 1.9 nM
CCCC(=O)C(C)CCOc1ccc(S(=O)(=O)C2(C(=O)NO)CCOCC2)cc1 (stereo not shown) [Example 295],> 10000,> 10000,2.6,172,15.6,–
COc1ccc(C(=O)CCCCOc2ccc(S(=O)(=O)C3(C(=O)NO)CCOCC3)cc2)c(OC)c1 [Example 351],> 10000,> 10000,1,2220,34.1,–
O=C(NO)C1(S(=O)(=O)c2ccc(OCCOCc3ccccn3)cc2)CCOCC1 [Example 515],–,–,–,–,–,IC50 (Human recombinant MMP-14; value outside parentheses): > 10000 nM; IC50 (Human recombinant MMP-1; value outside parentheses): > 10000 nM; IC50 (Human recombinant MMP-13; value outside parentheses): 24.2 nM; IC50 (Human recombinant MMP-9; value outside parentheses): 154 nM; IC50 (Human recombinant MMP-2; value outside parentheses): 89.8 nM
CCOc1ccc2nc(SCCOc3ccc(S(=O)(=O)C4(C(=O)NO)CCOCC4)cc3)sc2c1 [Example 330],592,> 10000,16,216,262,–

# Further lines, with some results ahead:
IC50 (Human recombinant MMP-14; [1]) [nM],IC50 (Human recombinant MMP-1; [1]) [nM],IC50 (Human recombinant MMP-13; [1]) [nM],IC50 (Human recombinant MMP-9; [1]) [nM],IC50 (Human recombinant MMP-2; [1]) [nM],SMILES,other results
> 10000,> 10000,11,3800,505,CC(C)(COc1ccc(S(=O)(=O)C2(C(=O)NO)CCOCC2)cc1)CS(=O)(=O)Cc1ccccc1 [Example 438],–
> 10000,> 10000,1.8,1150,25.1,O=C(CCCOc1ccc(S(=O)(=O)C2(C(=O)NO)CCOCC2)cc1)c1cccc(-c2ccccc2)c1 [Example 353],–
> 10000,> 10000,4.6,255,106,CN(C)c1ccc(/C=C/CCCOc2ccc(S(=O)(=O)C3(C(=O)NO)CCOCC3)cc2)cc1 [Example 486],–
1570,> 10000,0.5,169,3.1,COc1ccc(C(O)CCCCOc2ccc(S(=O)(=O)C3(C(=O)NO)CCOCC3)cc2)cc1 (stereo not shown) [Example 487],–
2430,> 10000,3.5,375,25,O=C(NO)C1(S(=O)(=O)c2ccc(OCCCOc3cccc(C(F)(F)F)c3)cc2)CCN(C2CC2)CC1 [Example 443],–
